Experimental data from ChEMBL document CHEMBL4665648, “Potent and selective inhibitors of receptor-interacting protein kinase 1 that lack an aromatic back pocket group” (Bioorg Med Chem Lett, 2019).

Experiments:
[1] = biological target: Protein-tyrosine kinase 6 (Homo sapiens) (UniProt Q13882); assay: Inhibition of recombinant human His-tagged full length BRK expressed in baculovirus expression system using Tyr 01 as substrate at 10 uM incubated for 60 mins by Z'-Lyte assay relative to control
[2] = Inhibition of necroptosis in human HT-29 cells assessed as reduction in TNFalpha/BV6/zVAD-fmk-induced cell death incubated for 18 hrs by Cell Titer Glo luminescent cell viability assay; type: functional, cell-based; details: HT-29, 18 h
[3] = biological target: Ephrin type-A receptor 3 (Homo sapiens) (UniProt P29320); assay: Inhibition of tracer 236 binding to recombinant human His-tagged EPHA3 (569 to 976 residues) expressed in baculovirus expression system at 10 uM incubated for 60 mins by Lanthascreen assay relative to control
[4] = biological target: Cyclin-dependent kinase 5/CDK5 activator 1 (Homo sapiens) (UniProt Q00535+Q15078); assay: Inhibition of recombinant human His/GST-tagged full length CDK5/p25 expressed in baculovirus expression system using Ser/Thr 12 as substrate at 10 uM incubated for 60 mins by Z'-Lyte assay relative to control
[5] = biological target: CDK8/Cyclin C (Homo sapiens) (UniProt P49336+P24863); assay: Inhibition of tracer 236 binding to recombinant human His-tagged full length CDK8/Cyclin C expressed in baculovirus expression system at 10 uM incubated for 60 mins by Lanthascreen assay relative to control
[6] = biological target: Serine/threonine-protein kinase Chk1 (Homo sapiens) (UniProt O14757); assay: Inhibition of recombinant human His-tagged full length CHK1 expressed in baculovirus expression system using Ser/Thr 19 as substrate at 10 uM incubated for 60 mins by Z'-Lyte assay relative to control
[7] = biological target: Calcium/calmodulin-dependent protein kinase type II subunit beta (Homo sapiens) (UniProt Q13554); assay: Inhibition of recombinant human His-tagged full length CAMK2beta expressed in baculovirus expression system using Ser/Thr 04 as substrate at 10 uM incubated for 60 mins by Z'-Lyte assay relative to control
Sequence of Calcium/calmodulin-dependent protein kinase type II subunit beta (Homo sapiens) (Q13554 whole entry): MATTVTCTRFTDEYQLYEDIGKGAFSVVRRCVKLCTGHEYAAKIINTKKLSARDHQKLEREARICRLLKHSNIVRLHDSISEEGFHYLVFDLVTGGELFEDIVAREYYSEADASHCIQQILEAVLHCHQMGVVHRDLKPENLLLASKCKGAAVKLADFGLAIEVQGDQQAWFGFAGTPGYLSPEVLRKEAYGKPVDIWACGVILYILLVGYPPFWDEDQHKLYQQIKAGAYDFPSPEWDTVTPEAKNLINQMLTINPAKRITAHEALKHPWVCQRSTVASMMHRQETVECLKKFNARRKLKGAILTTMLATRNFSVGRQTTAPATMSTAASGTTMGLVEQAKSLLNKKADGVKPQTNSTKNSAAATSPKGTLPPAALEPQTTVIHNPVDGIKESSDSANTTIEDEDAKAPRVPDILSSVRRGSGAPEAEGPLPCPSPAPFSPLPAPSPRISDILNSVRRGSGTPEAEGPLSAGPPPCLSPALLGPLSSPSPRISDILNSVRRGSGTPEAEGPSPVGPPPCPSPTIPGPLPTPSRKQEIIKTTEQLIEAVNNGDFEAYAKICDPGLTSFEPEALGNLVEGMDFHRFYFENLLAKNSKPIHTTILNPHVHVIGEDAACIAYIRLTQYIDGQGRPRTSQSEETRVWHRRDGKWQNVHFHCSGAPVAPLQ

[8] = biological target: Dual specificity tyrosine-phosphorylation-regulated kinase 1A (Homo sapiens) (UniProt Q13627); assay: Inhibition of recombinant human GST-tagged full length DYRK1A expressed in baculovirus expression system using Ser/Thr 18 as substrate at 10 uM incubated for 60 mins by Z'-Lyte assay relative to control
[9] = biological target: Tyrosine-protein kinase HCK (Homo sapiens) (UniProt P08631); assay: Inhibition of recombinant human N-terminal GST-tagged full length HCK expressed in baculovirus expression system using Tyr 02 as substrate at 10 uM incubated for 60 mins by Z'-Lyte assay relative to control
Sequence of Tyrosine-protein kinase HCK (Homo sapiens) (P08631 2-526 limits assumed): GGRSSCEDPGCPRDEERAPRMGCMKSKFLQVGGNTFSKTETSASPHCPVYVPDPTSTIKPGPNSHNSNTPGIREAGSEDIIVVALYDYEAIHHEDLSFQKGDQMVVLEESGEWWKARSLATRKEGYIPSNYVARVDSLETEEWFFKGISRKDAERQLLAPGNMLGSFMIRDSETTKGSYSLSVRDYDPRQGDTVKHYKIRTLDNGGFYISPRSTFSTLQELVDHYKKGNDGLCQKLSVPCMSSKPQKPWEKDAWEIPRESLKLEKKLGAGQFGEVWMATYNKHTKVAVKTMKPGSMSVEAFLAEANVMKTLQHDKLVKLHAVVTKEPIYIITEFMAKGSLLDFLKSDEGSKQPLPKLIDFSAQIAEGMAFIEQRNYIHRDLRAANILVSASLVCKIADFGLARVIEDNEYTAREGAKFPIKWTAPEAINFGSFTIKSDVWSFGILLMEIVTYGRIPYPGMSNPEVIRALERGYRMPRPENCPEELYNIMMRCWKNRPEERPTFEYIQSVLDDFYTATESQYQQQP

[10] = biological target: Tyrosine-protein kinase JAK2 (Homo sapiens) (UniProt O60674); assay: Inhibition of recombinant human GST-tagged JAK2 (809 to 1153 residues) expressed in baculovirus expression system using Tyr 06 as substrate at 10 uM incubated for 60 mins by Z'-lyte assay relative to control
[11] = biological target: Mitogen-activated protein kinase 8 (Homo sapiens) (UniProt P45983); assay: Inhibition of recombinant human His-tagged full length JNK1alpha1 expressed in baculovirus expression system using Ser/Thr 04 as substrate at 10 uM incubated for 60 mins by Z'-lyte assay relative to control
[12] = biological target: Serine/threonine-protein kinase 3 (Homo sapiens) (UniProt Q13188); assay: Inhibition of recombinant human GST-tagged full length MST2 expressed in baculovirus expression system using Ser/Thr 07 as substrate at 10 uM incubated for 60 mins by Z'-lyte assay relative to control
[13] = biological target: Myosin light chain kinase, smooth muscle (Homo sapiens) (UniProt Q15746); assay: Inhibition of tracer 236 binding to recombinant human GST-tagged MYLK (1428 to 1771 residues) expressed in baculovirus expression system at 10 uM incubated for 60 mins by Lanthascreen assay relative to control
[14] = biological target: Serine/threonine-protein kinase Nek6 (Homo sapiens) (UniProt Q9HC98); assay: Inhibition of recombinant human GST-tagged full length NEK6 expressed in insect expression system using Ser/Thr 22 as substrate at 10 uM incubated for 60 mins by Z'-lyte assay relative to control
Sequence of Serine/threonine-protein kinase Nek6 (Homo sapiens) (Q9HC98 whole entry, the tested form may be a part): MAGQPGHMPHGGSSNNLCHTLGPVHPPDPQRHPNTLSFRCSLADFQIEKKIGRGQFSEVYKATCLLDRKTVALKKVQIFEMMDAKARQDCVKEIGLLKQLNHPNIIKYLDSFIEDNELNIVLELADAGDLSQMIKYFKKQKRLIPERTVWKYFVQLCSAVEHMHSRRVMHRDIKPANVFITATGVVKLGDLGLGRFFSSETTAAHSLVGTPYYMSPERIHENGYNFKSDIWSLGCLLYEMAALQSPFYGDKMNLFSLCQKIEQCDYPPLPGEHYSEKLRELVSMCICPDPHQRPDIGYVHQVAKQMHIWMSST

[15] = biological target: Serine/threonine-protein kinase Nek9 (Homo sapiens) (UniProt Q8TD19); assay: Inhibition of recombinant human GST-tagged NEK9 (347 to 732 residues) expressed in baculovirus expression system using Ser/Thr 07 as substrate at 10 uM incubated for 60 mins by Z'-lyte assay relative to control
Sequence of Serine/threonine-protein kinase Nek9 (Homo sapiens) (Q8TD19 whole entry, the tested form may be a part): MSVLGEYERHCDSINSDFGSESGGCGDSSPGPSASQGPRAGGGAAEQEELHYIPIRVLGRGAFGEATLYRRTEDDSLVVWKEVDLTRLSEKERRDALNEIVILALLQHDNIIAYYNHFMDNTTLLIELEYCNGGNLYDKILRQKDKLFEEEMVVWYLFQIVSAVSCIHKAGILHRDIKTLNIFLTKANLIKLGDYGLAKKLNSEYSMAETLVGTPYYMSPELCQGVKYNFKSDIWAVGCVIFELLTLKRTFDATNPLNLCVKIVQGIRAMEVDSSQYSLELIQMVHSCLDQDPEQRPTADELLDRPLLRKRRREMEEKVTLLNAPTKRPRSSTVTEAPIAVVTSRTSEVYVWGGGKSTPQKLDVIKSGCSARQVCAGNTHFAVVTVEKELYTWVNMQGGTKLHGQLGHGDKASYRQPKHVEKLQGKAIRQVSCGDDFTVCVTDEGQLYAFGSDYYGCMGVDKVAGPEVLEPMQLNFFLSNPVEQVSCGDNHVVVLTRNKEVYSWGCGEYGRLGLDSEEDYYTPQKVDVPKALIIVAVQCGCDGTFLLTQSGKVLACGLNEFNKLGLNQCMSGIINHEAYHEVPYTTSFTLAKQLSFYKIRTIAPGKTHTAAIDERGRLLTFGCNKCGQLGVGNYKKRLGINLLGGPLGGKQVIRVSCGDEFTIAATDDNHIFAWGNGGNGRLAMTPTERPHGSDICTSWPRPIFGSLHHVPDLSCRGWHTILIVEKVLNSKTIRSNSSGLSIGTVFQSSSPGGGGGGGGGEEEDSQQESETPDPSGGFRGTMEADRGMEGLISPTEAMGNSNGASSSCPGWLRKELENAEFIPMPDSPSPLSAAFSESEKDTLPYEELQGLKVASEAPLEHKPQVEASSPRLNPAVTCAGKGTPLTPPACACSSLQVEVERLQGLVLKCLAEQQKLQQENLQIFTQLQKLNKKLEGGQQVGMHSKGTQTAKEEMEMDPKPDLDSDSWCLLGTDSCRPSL

[16] = biological target: Serine/threonine-protein kinase PAK 1 (Homo sapiens) (UniProt Q13153); assay: Inhibition of recombinant human GST-tagged full length PAK1 expressed in baculovirus expression system using Ser/Thr 19 as substrate at 10 uM incubated for 60 mins by Z'-lyte assay relative to control
Sequence of Serine/threonine-protein kinase PAK 1 (Homo sapiens) (Q13153 whole entry): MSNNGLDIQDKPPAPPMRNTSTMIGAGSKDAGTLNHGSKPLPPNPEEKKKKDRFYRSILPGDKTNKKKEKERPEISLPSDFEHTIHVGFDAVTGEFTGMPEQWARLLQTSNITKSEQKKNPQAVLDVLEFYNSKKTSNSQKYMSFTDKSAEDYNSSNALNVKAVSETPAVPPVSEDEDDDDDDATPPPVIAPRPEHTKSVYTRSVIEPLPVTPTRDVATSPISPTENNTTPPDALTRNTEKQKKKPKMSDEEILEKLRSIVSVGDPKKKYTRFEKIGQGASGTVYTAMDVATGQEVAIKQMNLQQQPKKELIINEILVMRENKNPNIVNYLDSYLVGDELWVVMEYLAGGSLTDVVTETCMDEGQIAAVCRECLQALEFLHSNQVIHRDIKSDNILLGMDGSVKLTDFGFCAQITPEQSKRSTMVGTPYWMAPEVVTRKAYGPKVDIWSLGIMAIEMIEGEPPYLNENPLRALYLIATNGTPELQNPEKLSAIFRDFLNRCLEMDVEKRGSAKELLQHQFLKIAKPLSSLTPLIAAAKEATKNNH

[17] = biological target: Serine/threonine-protein kinase PAK 6 (Homo sapiens) (UniProt Q9NQU5); assay: Inhibition of recombinant human His-tagged full length PAK6 expressed in baculovirus expression system using Ser/Thr 20 as substrate at 10 uM incubated for 60 mins by Z'-lyte assay relative to control
[18] = biological target: Protein kinase C alpha type (Homo sapiens) (UniProt P17252); assay: Inhibition of recombinant human His-tagged full length PKCalpha expressed in Escherichia coli expression system using Ser/Thr 07 as substrate at 10 uM incubated for 60 mins by Z'-lyte assay relative to control
[19] = biological target: MAP kinase-activated protein kinase 5 (Homo sapiens) (UniProt Q8IW41); assay: Inhibition of recombinant human His-tagged full length PRAK expressed in baculovirus expression system using Ser/Thr 04 as substrate at 10 uM incubated for 60 mins by Z'-lyte assay relative to control
[20] = biological target: Phosphorylase b kinase gamma catalytic chain, liver/testis isoform (Homo sapiens) (UniProt P15735); assay: Inhibition of recombinant human N-terminal GST-tagged full length PHKG2 expressed in baculovirus expression system using Ser/Thr 07 as substrate at 10 uM incubated for 60 mins by Z'-lyte assay relative to control
Sequence of Phosphorylase b kinase gamma catalytic chain, liver/testis isoform (Homo sapiens) (P15735 whole entry, the tested form may be a part, canonical isoform): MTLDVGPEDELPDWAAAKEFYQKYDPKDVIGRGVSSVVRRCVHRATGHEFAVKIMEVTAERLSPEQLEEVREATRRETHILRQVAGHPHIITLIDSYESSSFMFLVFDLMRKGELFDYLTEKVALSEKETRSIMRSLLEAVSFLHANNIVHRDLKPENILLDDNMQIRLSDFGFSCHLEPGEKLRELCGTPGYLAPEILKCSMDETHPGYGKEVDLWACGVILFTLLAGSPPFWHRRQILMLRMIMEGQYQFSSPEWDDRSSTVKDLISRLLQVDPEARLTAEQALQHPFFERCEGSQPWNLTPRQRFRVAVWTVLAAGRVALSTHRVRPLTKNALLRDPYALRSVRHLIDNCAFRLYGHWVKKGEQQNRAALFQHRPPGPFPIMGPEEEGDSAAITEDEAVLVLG

[21] = biological target: Proto-oncogene tyrosine-protein kinase receptor Ret (Homo sapiens) (UniProt P07949); assay: Inhibition of recombinant human GST-tagged full length RET (658 to 1114 residues) expressed in baculovirus expression system using Tyr 02 as substrate at 10 uM incubated for 60 mins by Z'-Lyte assay relative to control
[22] = biological target: Serine/threonine-protein kinase TAO2 (Homo sapiens) (UniProt Q9UL54); assay: Inhibition of recombinant human GST-tagged TAO2 (1 to 314 residues) expressed in baculovirus expression system using Ser/Thr 07 as substrate at 10 uM incubated for 60 mins by Z'-Lyte assay relative to control
[23] = biological target: Mitogen-activated protein kinase kinase kinase 8 (Homo sapiens) (UniProt P41279); assay: Inhibition of recombinant human GST-tagged TPL2 (30 to 397 residues) expressed in baculovirus expression system using Ser/Thr 03 as substrate at 10 uM incubated for 60 mins by Z'-Lyte assay relative to control
Sequence of Mitogen-activated protein kinase kinase kinase 8 (Homo sapiens) (P41279 whole entry, the tested form may be a part): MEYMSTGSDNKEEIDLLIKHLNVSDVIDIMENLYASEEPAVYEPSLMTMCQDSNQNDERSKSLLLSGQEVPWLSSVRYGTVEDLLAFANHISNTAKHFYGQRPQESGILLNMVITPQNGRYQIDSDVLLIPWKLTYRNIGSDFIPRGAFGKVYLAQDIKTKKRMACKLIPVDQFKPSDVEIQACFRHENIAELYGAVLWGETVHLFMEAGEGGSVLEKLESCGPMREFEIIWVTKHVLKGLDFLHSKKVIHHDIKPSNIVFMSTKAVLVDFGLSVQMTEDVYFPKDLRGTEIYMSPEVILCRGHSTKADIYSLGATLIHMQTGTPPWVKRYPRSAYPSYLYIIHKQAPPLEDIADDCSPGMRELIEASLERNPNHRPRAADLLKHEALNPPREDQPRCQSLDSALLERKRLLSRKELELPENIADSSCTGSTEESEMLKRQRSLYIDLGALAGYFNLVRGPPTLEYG

[24] = biological target: Mitogen-activated protein kinase kinase kinase 20 (Homo sapiens) (UniProt Q9NYL2); assay: Inhibition of tracer 178 binding to recombinant human N-terminal GST-tagged full length ZAK expressed in baculovirus expression system at 10 uM incubated for 60 mins by Lanthascreen assay relative to control

Sequence of Protein-tyrosine kinase 6 (Homo sapiens) (Q13882 whole entry, looked up): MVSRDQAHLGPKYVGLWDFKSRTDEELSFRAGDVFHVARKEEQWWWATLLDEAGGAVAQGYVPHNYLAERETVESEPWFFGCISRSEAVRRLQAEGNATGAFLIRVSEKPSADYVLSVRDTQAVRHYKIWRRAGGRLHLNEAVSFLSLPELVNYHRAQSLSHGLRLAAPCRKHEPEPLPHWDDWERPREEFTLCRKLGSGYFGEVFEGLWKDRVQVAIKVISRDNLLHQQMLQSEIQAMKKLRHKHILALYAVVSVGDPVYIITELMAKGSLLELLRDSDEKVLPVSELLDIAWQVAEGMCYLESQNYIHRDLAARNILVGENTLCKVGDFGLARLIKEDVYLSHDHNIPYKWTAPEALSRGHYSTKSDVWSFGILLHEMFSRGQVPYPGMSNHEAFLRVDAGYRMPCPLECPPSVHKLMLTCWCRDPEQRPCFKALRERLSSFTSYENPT

In the case of `CN1C(=O)[C@@H](NC(=O)c2n[nH]c3ncc(C(F)(F)C(F)(F)F)cc23)COc2ccccc21`, the inhibition [1] is reported as 0.5%, the EC50 [2] is reported as 54 nM and the inhibition [3] is reported as 5.5%. For the same compound, the inhibition [4] was 14.5%, the inhibition [5] was 14% and the inhibition [6] was -1%. For the same compound, the inhibition [7] was -1%, the inhibition [8] was 3.5% and the inhibition [9] was 4.5%. For the same compound, the inhibition [10] was 0%, the inhibition [11] was 8.5% and the inhibition [12] was 1.5%. The inhibition [13] was 7.5%, the inhibition [14] was 4% and the inhibition [15] was 3%. The inhibition [16] was 0.5%, the inhibition [17] was 7% and the inhibition [18] was -9.5%. It also gave an inhibition [19] of 5%, an inhibition [20] of 3.5% and an inhibition [21] of 4%. It also gave an inhibition [22] of 5%, an inhibition [23] of 6.5% and an inhibition [24] of 6.5%.
